These results are taken from US8153643B2, “Quinazoline derivatives” (AstraZeneca AB, priority 2004, dated 2012).

One experiment concerns the target T1, KDR tyrosine kinase (Homo sapiens, UniProt P35968).
T1 construct: encoding most of the cytoplasmic domain, commencing with methionine 806 and including the termination codon; made in house; host or cells: Sf9 insect cells (baculovirus)
Nature of the experiment: In vitro enzyme assay (ELISA), KDR. The class given is biochemical. Conditions: Test (a); ATP 8 μM; read-out: IC50 versus KDR tyrosine kinase. As for the experimental part: (§1) (a) In Vitro Enzyme Assays
(§2) The ability of test compounds to inhibit the phosphorylation of a tyrosine containing polypeptide substrate by the tyrosine kinase enzymes PDGFRα, PDGFRβ and KDR was assessed using conventional ELISA assays.
(§3) DNA encoding the PDGFRα, PDGFRβ or KDR receptor cytoplasmic domains may be obtained by total gene synthesis (International Biotechnology Lab., 1987, 5(3), 19-25) or by cloning. The DNA fragments may be expressed in a suitable expression system to obtain polypeptide with tyrosine kinase activity. For example, PDGFRα, PDGFRβ and KDR receptor cytoplasmic domains, obtained by expression of recombinant protein in insect cells, can be shown to display intrinsic tyrosine kinase activity. In the case of the VEGF receptor KDR (Genbank Accession No. L04947), a DNA fragment encoding most of the cytoplasmic domain, commencing with methionine 806 and including the termination codon may be cloned into a baculovirus transplacement vector [for example pAcYM1 (see The Baculovirus Expression System: A Laboratory Guide, L. A. King and R. D. Possee, Chapman and Hall, 1992) or pAc360 or pBlueBacHis (available from Invitrogen Corporation)]. This recombinant construct may be co-transfected into insect cells [for example Spodoptera frugiperda 21 (Sf21) or Spodoptera frugiperda 9 (Sf9)] with viral DNA (for example Pharmingen BaculoGold) to prepare recombinant baculovirus. Details of the methods for the assembly of recombinant DNA molecules and the preparation and use of recombinant baculovirus can be found in standard texts, for example Sambrook et al., 1989, Molecular cloning—A Laboratory Manual, 2nd edition, Cold Spring Harbour Laboratory Press and O'Reilly et al., 1992, Baculovirus Expression Vectors—A Laboratory Manual, W.H. Freeman and Co, New York).
For expression, Sf9 cells were infected with plaque-pure KDR recombinant virus and harvested 48 hours later. […]

The target of the next experiment is T2, PDGFRβ tyrosine kinase (Homo sapiens, UniProt P09619).
T2 construct: PDGFRα, PDGFRβ and KDR receptor cytoplasmic domains, obtained by expression of recombinant protein in insect cells; purchased Upstate Biotechnology Inc. 14-463; host or cells: Sf9 insect cells
T2 sequence (P09619 554-1106 limits assumed): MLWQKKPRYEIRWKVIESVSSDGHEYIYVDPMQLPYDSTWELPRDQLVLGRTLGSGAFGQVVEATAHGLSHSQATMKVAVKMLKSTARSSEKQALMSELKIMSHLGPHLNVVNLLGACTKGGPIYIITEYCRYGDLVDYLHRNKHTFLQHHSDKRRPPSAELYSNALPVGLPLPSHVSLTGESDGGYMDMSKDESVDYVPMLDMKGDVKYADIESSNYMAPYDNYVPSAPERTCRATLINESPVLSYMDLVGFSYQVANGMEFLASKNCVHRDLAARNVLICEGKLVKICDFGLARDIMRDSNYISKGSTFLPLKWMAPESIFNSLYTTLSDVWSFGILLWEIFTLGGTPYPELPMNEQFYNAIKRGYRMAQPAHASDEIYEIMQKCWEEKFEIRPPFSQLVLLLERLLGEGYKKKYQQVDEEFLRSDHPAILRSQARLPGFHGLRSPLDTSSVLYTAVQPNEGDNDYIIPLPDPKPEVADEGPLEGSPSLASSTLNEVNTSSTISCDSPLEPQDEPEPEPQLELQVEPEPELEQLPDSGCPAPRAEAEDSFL
Description: In vitro enzyme assay (ELISA), PDGFRβ. The class given is biochemical. Conditions: Test (a); ATP 2.8 μM; read-out: IC50 versus PDGFRβ tyrosine kinase. As for the experimental part: as §1, §2
as §3, with “York). […]” for “York).”
For orientation: ELISA stands for enzyme-linked immunosorbent assay.

A further experiment deals with T3, phospho-Tyr751 PDGFRβ (Homo sapiens, UniProt P09619).
T3 construct: phosphorylation of PDGFR expressed on MG63 osteosarcoma cells; endogenous in cells; host or cells: MG63 osteosarcoma cells
T3 sequence (P09619 33-1106): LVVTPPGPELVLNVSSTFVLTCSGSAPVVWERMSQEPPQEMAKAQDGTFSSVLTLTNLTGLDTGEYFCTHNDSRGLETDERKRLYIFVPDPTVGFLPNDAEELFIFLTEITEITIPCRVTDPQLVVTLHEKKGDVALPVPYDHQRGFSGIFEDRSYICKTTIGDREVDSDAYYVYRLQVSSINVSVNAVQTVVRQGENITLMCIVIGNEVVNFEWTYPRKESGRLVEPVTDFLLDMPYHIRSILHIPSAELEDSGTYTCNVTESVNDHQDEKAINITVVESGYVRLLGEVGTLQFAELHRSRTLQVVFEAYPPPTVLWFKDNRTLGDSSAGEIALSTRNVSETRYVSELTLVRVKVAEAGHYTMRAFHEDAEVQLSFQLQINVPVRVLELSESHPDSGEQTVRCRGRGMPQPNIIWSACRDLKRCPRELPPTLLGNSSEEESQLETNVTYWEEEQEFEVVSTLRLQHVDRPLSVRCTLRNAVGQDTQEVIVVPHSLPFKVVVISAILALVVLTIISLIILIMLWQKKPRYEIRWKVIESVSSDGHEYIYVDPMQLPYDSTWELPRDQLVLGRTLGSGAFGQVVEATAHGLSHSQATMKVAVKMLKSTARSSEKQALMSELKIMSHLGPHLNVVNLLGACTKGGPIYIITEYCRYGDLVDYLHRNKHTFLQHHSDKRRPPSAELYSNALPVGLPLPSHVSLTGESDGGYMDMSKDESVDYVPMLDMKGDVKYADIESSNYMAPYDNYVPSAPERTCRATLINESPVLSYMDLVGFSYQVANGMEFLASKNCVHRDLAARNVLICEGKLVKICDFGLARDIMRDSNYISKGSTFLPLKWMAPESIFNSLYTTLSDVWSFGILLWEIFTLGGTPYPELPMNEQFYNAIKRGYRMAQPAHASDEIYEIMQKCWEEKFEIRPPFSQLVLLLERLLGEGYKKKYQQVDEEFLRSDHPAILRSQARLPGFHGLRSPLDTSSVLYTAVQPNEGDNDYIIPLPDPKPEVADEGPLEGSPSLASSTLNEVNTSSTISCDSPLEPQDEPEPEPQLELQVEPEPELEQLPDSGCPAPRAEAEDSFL
Description: In vitro phospho-Tyr751 PDGFRβ ELISA assay. The experiment is classed as cell-based. Conditions: Test (b); MG63 osteosarcoma cells stimulated with PDGFBB; read-out: IC50 versus phospho-Tyr751 PDGFRβ. As for the experimental part: (b) In Vitro Phospho-Tyr751 PDGFRβ ELISA Assay
This assay uses a conventional EISA method to determine the ability of test compounds to inhibit phosphorylation of tyrosine in PDGFRβ.
An MG63 osteosarcoma cell line [American Type Culture Collection (ATCC) CCL 1427] was routinely maintained at 37° C. with 7.5% CO2 in Dulbecco's modified Eagle's growth medium (DMEM; Sigma-Aldrich; Catalogue No. D6546) containing 10% foetal calf serum (FCS; Sigma-Aldrich; Catalogue No. F7524) and 2 mM L-glutamine (Invitrogen Ltd., Paisley, UK; Catalogue No. 25030-024).
For the assay, the cells were detached from the culture flask using a trypsin/ethylenediaminetetraacetic acid (EDTA) mixture (Invitrogen Ltd.; Catalogue No. 15400-054) and resuspended in test media comprising DMEM without phenol red (Sigma-Aldrich; Catalogue No. D5921) containing 1% charcoal-stripped foetal calf serum (FCS) (Sigma-Aldrich; Catalogue No. F7524, stripped by incubation with dextran-coated activated charcoal at 55° C. for 30 minutes with continuous stirring followed by removal of the charcoal by centrifugation and filter sterilisation) and 2 mM L-glutamine (Invitrogen Ltd., Catalogue No. 25030-024) to give 6×10^4 cells per ml. Aliquots (100 μl) were seeded into each of the wells of columns 2-12 (excluding column 1) and rows B-G (excluding rows A and H) of a clear 96 well tissue culture plate (Corning Life Sciences, Koolhovenlaan, The Netherlands; Catalogue No. 3595) to give a density of about 6000 cells per well. Aliquots (100 μl) of culture media were placed in the outer wells to minimise edge effects. The cells were incubated overnight at 37° C. with 7.5% CO2 to allow the cells to adhere to the wells.
Test compounds were prepared as 10 mM stock solutions in DMSO and serially diluted as required with test media to give a range of concentrations. Aliquots (50 μl) of each compound concentration were added to the cells in each well. Control cells received a dilution of DMSO only. The cells were incubated for 90 minutes at 37° C. with 7.5% CO2.
The resultant cells were stimulated with PDGFBB using the following procedure. A lyophilised powder of PDGFBB, (Sigma-Aldrich; Catalogue No. P4306) was mixed with 4 mM aqueous hydrochloric acid containing 0.1% filter-sterilised BSA to provide a stock solution of 10 μg/ml of PDGFBB. A dilution of this stock solution into test medium provided a 200 ng/ml PDGFBB solution. Aliquots thereof (50 μl) were added to compound treated cells and to one set of control wells to give the “maximum” control. The “minimum” controls received media only. The cells were incubated at 37° C. with 7.5% CO2 for 5 minutes. […]

For a further experiment, the target named is T4, PDGFRα tyrosine kinase (Homo sapiens, UniProt P16234).
T4 construct: PDGFRα, PDGFRβ and KDR receptor cytoplasmic domains, obtained by expression of recombinant protein in insect cells; purchased Upstate Biotechnology Inc. 14-467; host or cells: Sf9 insect cells
T4 sequence (P16234 550-1089 limits assumed): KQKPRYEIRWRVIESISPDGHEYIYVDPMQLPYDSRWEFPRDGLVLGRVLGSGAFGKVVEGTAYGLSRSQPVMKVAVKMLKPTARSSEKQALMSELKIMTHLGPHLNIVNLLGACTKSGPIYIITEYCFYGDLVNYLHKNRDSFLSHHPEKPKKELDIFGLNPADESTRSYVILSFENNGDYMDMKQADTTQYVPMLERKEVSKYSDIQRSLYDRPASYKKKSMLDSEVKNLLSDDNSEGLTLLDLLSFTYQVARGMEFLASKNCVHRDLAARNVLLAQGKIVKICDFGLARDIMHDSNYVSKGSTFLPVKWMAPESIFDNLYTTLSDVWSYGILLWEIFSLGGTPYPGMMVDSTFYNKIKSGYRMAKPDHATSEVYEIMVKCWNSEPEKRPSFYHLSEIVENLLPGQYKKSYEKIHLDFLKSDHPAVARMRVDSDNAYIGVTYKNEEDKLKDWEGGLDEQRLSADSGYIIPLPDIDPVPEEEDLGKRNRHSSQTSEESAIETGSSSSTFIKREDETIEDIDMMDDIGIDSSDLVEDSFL
Nature of the experiment: In vitro enzyme assay (ELISA), PDGFRα. The class given is biochemical. Conditions: Test (a); ATP 14 μM; read-out: IC50 versus PDGFRα tyrosine kinase. As for the experimental part: as §1, §2
as §3, with “York). […]” for “York).”

In experiment [1] the test system is human glioblastoma lines U343 and U87. Conditions: injection into the brains of nude mice of U343 and U87; Cancer Research, 2000, 60, 5143-5150; cited from earlier work.
Another experiment has as its system PDGF receptor kinase. The conditions noted are these: Nature Reviews, 2002, 1, 493-502; Cancer Research, 1996, 56, 100-104; cited from earlier work.
The subject of experiment [2] is dermatofibrosarcoma protruberans cell cultures. Conditions: Cancer Research, 2001, 61, 5778-5783; cited from earlier work.

T1 sequence (P35968 786-1356 limits assumed): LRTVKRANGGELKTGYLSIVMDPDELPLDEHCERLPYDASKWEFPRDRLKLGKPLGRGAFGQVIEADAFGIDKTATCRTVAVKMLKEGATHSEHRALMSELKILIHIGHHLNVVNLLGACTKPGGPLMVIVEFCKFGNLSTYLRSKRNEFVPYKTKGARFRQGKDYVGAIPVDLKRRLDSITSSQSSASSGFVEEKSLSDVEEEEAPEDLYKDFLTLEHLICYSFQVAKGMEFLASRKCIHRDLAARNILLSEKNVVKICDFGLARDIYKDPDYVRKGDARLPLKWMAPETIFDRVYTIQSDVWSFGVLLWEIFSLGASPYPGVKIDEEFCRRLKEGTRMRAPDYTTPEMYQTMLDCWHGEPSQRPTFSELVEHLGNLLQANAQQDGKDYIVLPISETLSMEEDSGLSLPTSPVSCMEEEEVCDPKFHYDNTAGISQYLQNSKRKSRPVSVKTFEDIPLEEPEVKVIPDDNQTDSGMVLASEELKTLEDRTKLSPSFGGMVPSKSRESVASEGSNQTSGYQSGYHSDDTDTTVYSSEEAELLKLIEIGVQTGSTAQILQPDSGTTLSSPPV

For `COc1cc2ncnc(Oc3ccc(CC(=O)Nc4ccc(N(C)C)cn4)cc3)c2cc1OC` [Example 6, N-(5-dimethylaminopyridin-2-yl)-2-[4-(6,7-dimethoxyquinazolin-4-yloxy)phenyl]acetamide], the IC50 (as a rule, the concentration that gives 50% inhibition) was approximately 10 nM on KDR tyrosine kinase, approximately 300 nM on PDGFRβ tyrosine kinase, approximately 0.5 nM on phospho-Tyr751 PDGFRβ and approximately 400 nM at PDGFRα tyrosine kinase.

As for `COc1cccc(NC(=O)Cc2ccc(Oc3ncnc4cc(OC)c(OC)cc34)cc2)c1` [Example 1, N-(3-methoxyphenyl)-2-[4-(6,7-dimethoxyquinazolin-4-yloxy)phenyl]acetamide], the half-inhibitory concentration (IC50) at KDR tyrosine kinase is approximately 1 nM; at PDGFRβ tyrosine kinase it was approximately 60 nM; on phospho-Tyr751 PDGFRβ, approximately 1 nM; on PDGFRα tyrosine kinase, approximately 250 nM.

Turning to `Cc1ccc(NC(=O)c2ccc(CN3CCN(C)CC3)cc2)cc1Nc1nccc(-c2cccnc2)n1` [imatinib], in experiment [1], the “growth of glioblastoma tumours” value was “inhibits the growth”. For the same compound, the “PDGF receptor kinase activity” value in the experiment on PDGF receptor kinase is “inhibit PDGF receptor kinase activity”. The “in vivo growth of dermatofibrosarcoma protruberans cell cultures” value in experiment [2] was “inhibits the in vivo growth”.

For the compound `COc1cc2ncnc(Oc3ccc(CC(=O)Nc4nc(C)cs4)cc3)c2cc1OC` [Compound 17 within Example 9, N-(4-methylthiazol-2-yl)-2-[4-(6,7-dimethoxyquinazolin-4-yloxy)phenyl]acetamide], the half-maximal inhibitory concentration (IC50) at PDGFRβ tyrosine kinase is approximately 100 nM; at phospho-Tyr751 PDGFRβ, approximately 2 nM; at PDGFRα tyrosine kinase, approximately 300 nM.

In the case of `COc1cc2ncnc(Oc3ccc(CC(=O)Nc4cccc(N(C)C)n4)cc3)c2cc1OC` [Compound 4 within Example 10, N-(6-dimethylaminopyridin-2-yl)-2-[4-(6,7-dimethoxyquinazolin-4-yloxy)phenyl]acetamide], the IC50 was approximately 10 nM at KDR tyrosine kinase and approximately 1 nM at phospho-Tyr751 PDGFRβ.
